Laboratory results reported in patent publication US20260263638A1, “COMPOSITIONS AND METHODS TO IMPROVE RNA PROPERTIES USING BASE, PHOSPHODIESTER LINKAGE, SUGAR BACKBONE, AND CAP MODIFICATIONS” (The Broad Institute, Inc., priority 2023, published 2026).
Strand notation (5' to 3'): a small letter for the sugar, then the base; units joined by * are phosphorothioate-linked, units joined directly phosphodiester-linked; [ ] holds rarer units or linkages, { } end groups; capitals alone tell only the bases. {m7G} = 7-methylguanosine cap nucleotide; l = locked nucleic acid (LNA); m = 2'-O-methyl; r = 2'-OH (RNA); {P} = phosphate

Assays:
reticulocytes = assay: Plasma reticulocyte counting by flow cytometry; assay type: in vivo; conditions: mice
Protocol: (§1) mRNA diluted in 50 mM citrate buffer (pH 4) and lipid mix (37.5 mM in ethanol) containing 50 mol % SM-102, 10 mol % DSPC, 38.5 mol % Cholesterol, and 1.5 mol % DMG-PEG2000 were assembled into LNP using a NanoAssemblr Spark instrument [Precision Nanosystems]. Upon formulation, mRNA-LNPs were diluted in 12 mL 1×PBS solution and the buffer was exchanged by concentrating with a 30 kDa spin filter [MilliporeSigma, UFC901008] to remove residue ethanol. Concentrations and encapsulation efficiency of mRNA were determined using Quant-it RiboGreen RNA Assay Kit [ThermoFisher, R11490]. 1 μg NanoLuc or hEPO mRNA-LNP in a total volume of 100 μL was injected through retro orbital injection into each mouse. Four mice were used for each condition of each experiment (NanoLuc imaging, hEPO ELISA, and reticulocyte counting). For NanoLuc imaging, PBS injection was used as negative control. For hEPO/reticulocyte experiments, poly(C)-LNP complex was used as negative control.
10 μL […] sample was added into 1 mL of the Reticulocyte Reagent [BD Bioscience] at the indicated time points and the mixture was incubated at room temperature for 30 minutes with protection from light. The samples were analyzed with Beckman CytoFLEX LX Flow Cytometer with 100,000-event records for each sample. Thiazole orange positive cells are defined as reticulocytes.

[1] = Quantification of plasma hEPO by ELISA after mRNA-LNP injection; assay type: in vivo; conditions: mice; hEPO mRNA-LNP retro-orbital; 6 hours
Protocol: All animal procedures followed animal care guidelines approved by the Institutional Animal Care and Use Committee (IACUC) of the Broad Institute of MIT and Harvard under animal protocol #0255-08-19. Animal experiments were conducted in compliance with IACUC policies and NIH guidelines. The BALB/cj (male, 6~8 weeks old) mice used for in vivo NanoLuc assay in this study were purchased from The Jackson Laboratory (JAX). The C57BL/6 mice (female, 7 weeks old), used for hEPO assay in this study were purchased from The Jackson Laboratory (JAX).
as §1
At the indicated time points, approximately 100 μL of blood was collected with EDTA-coated capillary tubes from each mouse and then transferred to an EDTA-coated tube. The collected blood samples were centrifuged at 2000 g for 10 min, followed by transferring the resulting plasma into another tube. The hEPO levels in the plasma samples were measured by Human Erythropoietin (EPO) ELISA kit [LEGEND MAX, 442907]. Final concentrations for hEPO were adjusted based on the volume and dilution fold.

HeLa cells [2] = assay: NLuc bioluminometry of circRNA/QRNA (Fluc transfection control); assay type: cell-based; conditions: capped oligo:circRNA up to 80:1 molar ratio
Protocol: Synthetic linear mRNA encoding NanoLuciferase (NLuc) was prepared from DNA template by IVT with 100% m1ψ substitution. The triphosphorylated mRNA after IVT was then treated with Calf Intestinal Alkaline Phosphatase (CIAP) to yield 5′/3′-hydroxyl mRNA. A chemically synthesized oligonucleotide with a branched m7G cap and 5′/3′-phosphates was then ligated to the 5′/3′-hydroxyl mRNA by T4 RNA ligase, which ligates the 5′-phosphate on the oligo and 3′-hydroxyl of the mRNA. The ligation product was then further treated with RtcB ligase, which ligates the 5′-hydroxyl and 3′-phosphate ends to enable intramolecular circularization. […] Using one primer only produced no fragmentation but only linearization, confirming successful circularization. Using double primers produced fragments flanking the branched region, where branched topology was confirmed by gel shift. […] NLuc bioluminometry was measured 8 hrs post transfection and normalized Firefly luciferase as transfection control. Mean±s.e.m., n=3. P values were calculated by ordinary one-way ANOVA (alpha=0.05), with multiple comparisons to circ-NLuc with only 5-octadiynyl deoxyuridine (OU) handle (construct 45). ****P<0.0001, n.s. P>0.05. […] QRNA with m7G (construct 48) was compared. n=3, biological replicates. Mean±sem. P values were calculated by ordinary one-way ANOVA with multiple comparisons against construct 61 without any cotransfected capped oligos (Dunnett's multiple comparison test). […] P values were calculated by unpaired two-sided t-test.
HeLa cells [ATCC, CCL-2] were maintained in DMEM culture media [ThermoFisher Scientific, 119951] containing 10% FBS and 1% penicillin-streptomycin [ThermoFisher Scientific, 15070063] in a 37° C. incubator with 5% CO2 and passaged at a ratio of 1:10 every 3 days. […] Cells were lysed and luciferase activity was measured using the Promega Dual Glo Luciferase Assay System [Promega, E2920]. Firefly luminescence/Renilla luminescence for each well was used as mRNA activity readout. […]

eIF4E [3] = molecular target: T1, eIF4E (Homo sapiens, UniProt P06730); assay: eIF4E electrophoretic mobility shift assay (EMSA); assay type: binding; conditions: AF647-labeled capped oligos, read-out: eIF4E dissociation constant (Kd)
T1 construct: His; purchased Cayman Chemical Inc 25150
Protocol: (§2) eIF4E affinity to fluorophore-labeled capped RNA oligonucleotides was quantified through electrophoretic mobility shift assay (EMSA) (FIGS. 14D and 9A-9E).
(§3) Capped oligonucleotides were labeled on the 3′ end using AF647 labeled cytidine-5′-phosphate-3′-(6-aminohexyl) phosphate [Jena Bioscience, NU-1706-AF647] and T4 RNA ligase ligated AF647-labeled cytidine onto the capped oligos using manufacturer's protocols. Oligos were then incubated in the binding buffer (1 mM DTT, 50 mM KCl, 10 mM Tris-HCl (pH 7.6), Novex Hi-Density TBE Sample Buffer [Invitrogen, LC6678]) with varying eIF4E-His [Cayman Chemical Inc, 25150] concentrations prepared by sequential dilutions from the stock solution. The oligos and […] were incubated at 4° C. for 30 mins and characterized by EMSA with Novex TBE Gels, 4-20% [Invitrogen, EC6225BOX] at 4° C. AF647 labeled oligos were imaged with BioRad ChemiDoc MP Imaging System [12003154] and band intensities were quantified using ImageJ. For Kd calculation, the proportions of bound were plotted against eIF4E concentration using GraphPad Prism (Specific binding with Hill slope).

HeLa cells [4] = assay: Time-course dual luciferase assay of modified Firefly luciferase mRNA (Renilla control); assay type: cell-based; conditions: HeLa cells; 8-, 24-, 48-hours post-transfection; benchmark m7G-rG
Protocol: The modularity of this workflow enabled divergent construction and evaluation of mRNAs featuring four different types of cap and 5′ UTR modifications (FIG. 8A): (1) base identities within the 5′ UTR, including as locations beyond the third base (+3 position), (2) phosphodiester linkages within the 5′ UTR, (3) sugar backbone modifications within the 5′ UTR, and (4) cap modifications. The effects of all of these different types of modifications on protein translation were assayed using Firefly luciferase reporter at 8-, 24-, and 48-hours post-transfection.
HeLa cells [ATCC, CCL-2] were maintained in DMEM culture media [ThermoFisher Scientific, 119951] containing 10% FBS and 1% penicillin-streptomycin [ThermoFisher Scientific, 15070063] in a 37° C. incubator with 5% CO2 and passaged at a ratio of 1:10 every 3 days. On the day before mRNA transfection, HeLa cells were seeded at 90% confluence in individual wells on 24-well plates. The following day, 50 ng of Renilla luciferase (internal control) mRNA and 50 ng of modified Firefly luciferase mRNA were transfected using Lipofectamine MessengerMAX Transfection Reagent [ThermoFisher Scientific, LMRNA003] per manufacturer's protocols. Additional controls that contain only Renilla luciferase mRNA or lipofection reagent only were included. Three individual transfections were conducted for each condition. 6 hours after transfection, the transfection media was removed, and cells were trypsinized and reseeded to three white clear-bottom 96-well plates [Corning, 3610] in phenol-red-free media. At 8-, 24-, and 48-hours post-transfection, cell culture media was removed and cells were rinsed with DPBS. Cells were lysed and luciferase activity was measured using the Promega Dual Glo Luciferase Assay System [Promega, E2920]. Firefly luminescence/Renilla luminescence for each well was used as mRNA activity readout. In cases where Nluc and Fluc were used, the protocol was conducted similarly using the Nano-Glo Dual-Luciferase Reporter Assay System [Promega, N1610].

[5] = molecular target: T2, human decapping enzyme 2 (hDcp2) (Homo sapiens, UniProt Q8IU60); assay: hDcp2 decapping assay; assay type: biochemical; conditions: 23-nt capped oligos; for Susceptibility / resistance to hDcp2 decapping: result in words
T2 construct: purchased Enzymax LLC 86
Protocol: Next, the influence of modifications on decapping activity was examined. To this end, 23-nucleotide (23-nt) oligonucleotides with various modification patterns were subjected to decapping reactions and analyzed at different time intervals (FIGS. 14E and 9I).
500 ng of capped oligos were incubated in 75 μL decapping reaction buffer (10 mM Tris-HCl (pH 7.5), 100 mM NaCl, 2 mM MgCl2, 1 mM DTT, 2 mM MnCl2, 1:25 SUPERaseIn (v/v)) with 300 ng of hDcp2 [Enzymax LLC, 86] at 37° C. At indicated time points, 5 μL of reaction mixture was aliquoted out into 10 μL of denaturing gel-loading buffer [NEB, B0363S, with urea added to a final concentration of 5 M] and cooled to −20° C. until all time points were collected. The fractions were analyzed by PAGE using Novex 15% TBE-Urea gel [Invitrogen, EC6885BOX] by running at 100 V for 2 hours and stained by 1×SYBR Gold [ThermoFisher Scientific, S11494], and visualized using BioRad ChemiDoc MP Imaging System [12003154]. Band intensities were quantified using ImageJ.

eIF4E [6] = molecular target: eIF4E (UniProt P06730 P06730:1-217); assay: EMSA; 50 mM KCl, 10 mM Tris-HCl pH 7.6, 1 mM DTT, 4 C; conditions: tags: His tag; Cayman Chemical 25150; label: 3' AF647-cytidine (EMSA)
Protocol: as §2, §3

Sequence of eIF4E (UniProt P06730 P06730:1-217) (P06730 whole entry, one chain of several): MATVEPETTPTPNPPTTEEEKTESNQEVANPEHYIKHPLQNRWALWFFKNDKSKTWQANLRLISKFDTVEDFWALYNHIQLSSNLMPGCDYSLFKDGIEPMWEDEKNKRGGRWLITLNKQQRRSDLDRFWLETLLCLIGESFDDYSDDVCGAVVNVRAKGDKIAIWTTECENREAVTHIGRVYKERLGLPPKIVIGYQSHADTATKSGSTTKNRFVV
T1 sequence (P06730 whole entry): as the sequence (P06730 whole entry, one chain of several) above

## construct S21: hEPO mRNA with m7G-rG cap, in LNP (SEQ ID NO: 138) (GGAGAAUAAAAA; RNA, 5' {m7G}, backbone not given here; capped 5' oligo ligated to hEPO mRNA, formulated in LNP) [reference compound]
reticulocytes; day 6, vs poly(C)-LNP
  Effect on reticulocyte counts, result in words: non-significant
reticulocytes; day 6 post-administration
  Reticulocytes, % of total red blood cells: 4±0.3%
[1]
  Peak plasma hEPO expression: 733±123 mlU/mL

## construct 61: m1ψ NLuc circRNA with 20-nt insert, annealed non-covalently to m7G-capped complementary oligo (SEQ ID NO: 116, 177) (chain 1 AAAAACUUACCAAGCGAAGAACAGAAAAA; chain 2 GUCUGUUCUUCGCUUGGUAAG; m1ψ; circRNA; m7G-capped complementary oligo annealed; modified_base 1 OTHER; 5'-phosphate modified nucleotide; modified_base 29 OTHER; 3'-phosphate modified nucleotide; 5'-phosphate modified 7-methylguanosine)
HeLa cells [2]
  Enhancement of NLuc protein production by non-covalent complementary capped oligo: up to 5 fold

## construct 15: m7G cap; /5Phos/mAmGmAmGmAmArUrArArArArA (SEQ ID NO: 16) ({P}-mAmGmAmGmAmArUrArArArArA; m7G cap on the 5'-phosphate)
eIF4E [3]
  Kd: 2450 ± 140 nM
HeLa cells [4]
  Protein expression (Firefly luciferase luminescence normalized to Renilla, then to m7G-rG), fold increase: 6.9 fold
[5]; listed as 2′OMe at first 6 bases
  Susceptibility / resistance to hDcp2 decapping: increased decapping resistance to a similar level as LNA modification
[5]; listed as 2′OMe within the first 6 bases
  Susceptibility / resistance to hDcp2 decapping: increased decapping resistance

## construct 22: LNAm7G cap; /5Phos/+ArGrArGrArArUrArArArArA (SEQ ID NO: 23) ({P}-lArGrArGrArArUrArArArArA; LNA-modified m7G cap on the 5'-phosphate)
eIF4E [3]
  Kd: 1420 ± 126 nM
HeLa cells [4]
  Protein expression (Firefly luciferase luminescence normalized to Renilla, then to m7G-rG), fold increase: 8.6 fold
[5]; after 60 minutes
  Capped transcripts remaining after hDcp2 decapping: 71%~73

## AGAGAAUAAAAA (ssRNA, 5' m7G cap with LNA sugar; LNA at position 1) [LNAm7G-LNA (22)]
eIF4E [6]
  Kd: 1420 nM

## AGAGAAUAAAAA (ssRNA, 5' m7G cap with LNA sugar; 2'-OMe at positions 1-6) [LNAm7G-2OMex6 (24)]
eIF4E [6]
  Kd: 1570 nM

## AGAGAAUAAAAA (ssRNA, 5' m7G cap; 2'-OMe at positions 1-6) [m7G-6x2OMe (15)]
eIF4E [6]
  Kd: 2450 nM
